Results on eleven substances are retold here after patent US7714106B2, “Neuropeptides and their use for pest control” (University of Florida Research Foundation, Inc., priority 1999, dated 2010).

No end group written: not given here.

The subject of one data set is first instar Aedes aegypti larvae. As to the kind of experiment: Effect of NPF polypeptides on Aedes aegypti larvae (ingestion, mortality). In kind it is in vivo. The following applies: microtiter plate, peptide 2 mg/ml to 0.04 mg/ml with Brewer's yeast, mortality at 24 hour intervals for 3 to 7 days, read-out: LC50 (mM) ± SEM. An excerpt:
NPF polypeptides sharing sequence homology with NPF I and NPF II of the Colorado potato beetle (Leptinotarsa decemlineata) (Spittaels, et al. Insect Biochem. Mol. Biol., 26 (4):375-382, 1996) have been identified in the American cockroach (Periplaneta americana) (Veenstra and Lambrou, Biochem. Biophys. Res. Commun., 213 (2):519-524, 1995), mosquito (Aedes aegypti) (Stanek et al., Display Presentation, Entomological Society of America Annual Meeting, Montreal, Canada, Dec. 3-6, 2000), and fruit fly (Drosophila melanogaster), and their pesticidal activity was confirmed. Synthesized polypeptides corresponding to the native polypeptides of Colorado potato beetle (SEQ ID NO. 1), mosquito (SEQ ID NOs. 5 and 7), American cockroach (SEQ ID NOs. 9 and 11), and fruit fly (SEQ ID NOs. 13 and 15) were provided to first instar Aedes aegypti larvae for ingestion. Non-amidated versions of SEQ ID NOs. 5, 7, 9, 11, 13, and 15 (SEQ ID NOs. 6, 8, 10, 12, 14, and 16, respectively), as well as other functional equivalents (SEQ ID NOs. 17-24), were also provided for ingestion.
First instar Aedes aegypti larvae were assayed in a microtiter plate in 188 μl solution containing 160 μl of water, 10 μl of 2% Brewer's yeast, and NPF polypeptides of the subject invention at concentrations of 2 mg/ml to 0.04 mg/ml (Table 2). Mortality was determined at 24 hour intervals for 3 to 7 days. Controls were run with yeast solution lacking the NPF polypeptide.
A word on the LC50: it is the concentration lethal to half of the exposed cells or organisms. For the substance “ANRSPSLRLRF-NH2 [SEQ ID NO. 9, Ala-Asn-Arg-Ser-Pro-Ser-Leu-Arg-Leu-Arg-Phe-amide]”, the LC50 worked out at 0.135 ± 0.06 mM.

As for “APQLRLRF-NH2 [SEQ ID NO. 7, Ala-Pro-Gln-Leu-Arg-Leu-Arg-Phe-amide]”, the LC50 came to 0.8 ± 0.06 mM.

On to “ARGPQLRLRF-NH2 [SEQ ID NO. 1, Ala-Arg-Gly-Pro-Gln-Leu-Arg-Leu-Arg-Phe-amide]”, for which the LC50 was determined as 0.65 ± 0.04 mM.

In the case of “RPPTRFRF-NH2 [SEQ ID NO. 5, Arg-Pro-Pro-Thr-Arg-Phe-Arg-Phe-amide]”, the LC50 came out at 0.61 ± 0.018 mM.

In the case of “RSPSLRLRF-NH2 [SEQ ID NO. 17, Arg-Ser-Pro-Ser-Leu-Arg-Leu-Arg-Phe-amide]”, the LC50 was found to be 0.82 ± 0.07 mM.

For the substance “PSLRLRF-NH2 [SEQ ID NO. 19, Pro-Ser-Leu-Arg-Leu-Arg-Phe-amide]”, the LC50 was above 2.25 mM.

As for “PIRSPSLRLRF-NH2 [SEQ ID NO. 13, Pro-Ile-Arg-Ser-Pro-Ser-Leu-Arg-Leu-Arg-Phe-amide]”, the LC50 was 0.589 ± 0.04 mM.

For the substance “LRLRF-NH2 [SEQ ID NO. 21, Leu-Arg-Leu-Arg-Phe-amide]”, the LC50 is above 2.8 mM.

“AQRSPSLRLRF-NH2 [SEQ ID NO. 15, Ala-Gln-Arg-Ser-Pro-Ser-Leu-Arg-Leu-Arg-Phe-amide]”: the LC50 amounted to 1.03 ± 0.1 mM.

Regarding “ADRSPSLRLRF-NH2 [SEQ ID NO. 11, Ala-Asp-Arg-Ser-Pro-Ser-Leu-Arg-Leu-Arg-Phe-amide]”, the LC50 was determined as 0.65 ± 0.03 mM.

A further data set deals with trypsin biosynthesis in the midgut of female Aedes aegypti. As to the kind of experiment: Trypsin biosynthesis in blood-fed female mosquitoes injected with peptide (whole mosquitos). The following applies: whole blood-fed females, injected 0.25 μl, 10^−6 M peptide, midguts assayed 30 hours later. In kind it is in vivo. An excerpt:
To find out if NPF I and II affect trypsin biosynthesis in the midgut of female Aedes aegypti, […] were removed and assayed for trypsin biosynthesis (Borovsky el al., 1990 “Mosquito Oostatic Factor: A Novel Decapeptide Modulating Trypsin-Like Enzyme Biosynthesis in the Midgut” FASEB J. 4:3015-3020; Borovsky et al. 1993 “Mass Spectrometry and Characterization of Aedes aegypti Trypsin Modulating Oostatic Factor (TMOF) and its Analog” Insect Biochem. Molec. Biol. 23:703-712). Each experiment was repeated 3 times (5 females per group) and the results are expressed as % inhibition of trypsin biosynthesis±S.E.M. (FIG. 1).
Turning to “Ala-Pro-Ser-Leu-Arg-Leu-Arg-Phe-amide (APSLRLRF-NH2) [NPF II, amidated neuropeptide NPF II, native to the Colorado potato beetle]”, the “% inhibition of trypsin biosynthesis” value is reported as 35%.
